According to patent US20030100550A1, “Carboxamide diazepin derivatives, preparation method, use as medicines, pharmaceutical compositions and use thereof” (priority 2002, published 2003):
pIC50: −log10 of the molar value.

biological target: T1, Cathepsin K (Homo sapiens, UniProt P43235); test: Study of Cathepsin K inhibition (fluorescence, Z-Val-arg-AMC); type: biochemical; details: not given
T1 sequence (P43235 115-329): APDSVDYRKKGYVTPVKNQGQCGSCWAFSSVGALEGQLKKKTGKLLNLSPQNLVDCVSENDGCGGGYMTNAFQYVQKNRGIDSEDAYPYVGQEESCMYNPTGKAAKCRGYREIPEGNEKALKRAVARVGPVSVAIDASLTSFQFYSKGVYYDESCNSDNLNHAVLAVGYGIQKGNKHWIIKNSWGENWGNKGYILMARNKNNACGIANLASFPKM
Method: Study of Cathepsin K Inhibition:
The products to be tested (10 mM) are diluted to […] in DMSO and distributed into Nunc polystyrene 96 well plates at a rate of 2 μl per well. Column 12 of the plate is reserved for the controls and therefore receives […] of DMSO (without products) per well. The plates are stored at −80° C. and thawed on the day of the experiment.
The products are diluted to 50 μM by adding 38 μl of reaction buffer: sodium acetate 100 mM, EDTA 5 mM, DTT […] pH 5.5. The addition as well as all the operations by pipette are carried out with a CybiWell 96 tip pipette. After mixing the solutions, each product is transferred into 2 wells (duplicates) of a Greiner black 384 well plate at a rate of 10 μl per well. Two 96-well plates can therefore be tested in a 384-well plate.
A solution of substrate at 50 μM, Z-Val-arg-AMC (Calbiochem), is prepared in the reaction buffer. The substrate, is then distributed into all the wells of the 384-well plate (20 μl per well).
A solution of Cathepsin K at 12.5 ng/ml is prepared in the reaction buffer and distributed into all the wells of the 384-well plate (20 μl per well) except for the 16 wells serving as 100% inhibition controls (column 23 and 24, lines I to P) which receive 20 μl of enzyme-free buffer.
The plates are then incubated 2H at ambient temperature, then read on Fluoroskan (Labsystems): excitation 390 nm; emission 460 nm
The final concentrations of each of the reagents are: products 10 μM, substrate 20 μM, enzyme 5 ng/ml.
The % inhibition for each of the products is calculated by using points at 0 and 100% inhibition of each plate as references. The products presenting a significant inhibition are then retested on a range of concentrations from 50 to 0.5 μM to determine an IC50.

In the case of `C=CCOC(=O)CC[C@H](NC(=O)[C@@H]1CCCN2C(=O)CC[C@H](NS(=O)(=O)c3ccc4ccccc4c3)C(=O)N12)C(=O)CN1CCN(CC(=O)N2CCCC2)CC1` [Example 117], the pIC50 was 5.15.

same assay, conditions: printed beside 20 μM; meaning not explained

In the case of `C=CCOC(=O)CC[C@H](NC(=O)[C@@H]1CCCN2C(=O)CCC[C@H](NC(=O)Nc3ccc(Oc4ccccc4)cc3)C(=O)N12)C(=O)COC(C)=O` [Example 133], the “Cathepsin K, percentage in parentheses beside IC50 value (% inhibition)” value was 25%.

same assay, conditions: substrate Z-Val-arg-AMC 20 μM, enzyme 5 ng/ml, 2H at ambient temperature; read-out: Cathepsin K IC50

In order of rising pIC50:
1. C=CCOC(=O)CCC(NC(=O)C1CCCN2C(=O)CCC(NC(=O)NCCc3cccs3)C(=O)N12)C(=O)CSc1nnnn1-c1ccccc1 [Example 138, (2-propenyl)(4S)6-[(1-phenyl-1H-tetrazol-5-yl)thio]-4-[[[(1S,9S)-^9-[[[[^2-(thien-2-yl)-ethyl]amino]carbonyl]amino]-octahydro-6,10-dioxo-6H-pyridazino[1,2-a][1,2]diazepine-1-yl]carbonyl]amino]-5-oxo-hexanoate]  4.54
2. C=CCOC(=O)CC[C@H](NC(=O)[C@@H]1CCCN2C(=O)CC[C@H](NS(=O)(=O)c3ccc(C(F)(F)F)cc3)C(=O)N12)C(=O)CN1CCN(CC(=O)N2CCCC2)CC1 [Example 107]  4.70
3. C=CCOC(=O)CC[C@H](NC(=O)[C@@H]1CCCN2C(=O)CCC[C@H](NC(=O)Nc3ccc(Oc4ccccc4)cc3)C(=O)N12)C(=O)COC(C)=O [Example 133]  4.70
4. [N-]=[N+]=CC(=O)[C@H](Cc1ccccc1)NC(=O)[C@@H]1CCCN2C(=O)CC[C@H](NC(=O)NCCc3cccs3)C(=O)N12 [Example 162]  4.70
5. [N-]=[N+]=CC(=O)[C@H](Cc1ccccc1)NC(=O)[C@@H]1CCCN2C(=O)CC[C@H](NS(=O)(=O)c3ccc4ccccc4c3)C(=O)N12 [Example 165, 9-[(9S)-[(2-naphthalenyl)sulphonyl]amino]-N-( (2S)-4-diazo-1-phenyl-3-oxo-2-butyl)-octahydro-6,10-dioxo-6H-(1S)-pyridazino[1,2-a][1,2]diazepine-1-carboxamide]  4.70
6. O=C(Nc1ccc(Oc2ccccc2)cc1)N[C@H]1CCC(=O)N2CCC[C@@H](C(=O)N[C@@H](Cc3ccccc3)C(=O)CN3CCC(Cc4ccccc4)CC3)N2C1=O [Example 218, 9-[(9S)-[[(4-phenoxyphenyl)amino]carbonyl]amino]-N-[(2S)-4-[(4-phenylmethyl)-1-piperidinyl]-1-phenyl-3-oxo-2-butyl]-octahydro-6,10-dioxo-6H-(1S)-pyridazino[1,2-a][1,2]diazepine-1-carboxamide]  4.70
7. CC(C)C[C@H](NC(=O)[C@@H]1CCCN2C(=O)CC[C@H](NC(=O)NC3CCCCC3)C(=O)N12)C(=O)C=[N+]=[N-] [Example 343, 9-[(9S)-[(cyclohexylamino)carbonyl]amino]-N-((3S)-1-diazo-5-methyl-2-oxo-3-hexyl)-octahydro-6,10-dioxo-6H-(1S)-pyridazino[1,2-a][1,2]diazepine-1-carboxamide]  4.85
8. CC(C)C[C@H](NC(=O)[C@@H]1CCCN2C(=O)CC[C@H](NC(=O)C(C)C)C(=O)N12)C(=O)C=[N+]=[N-] [Example 339, 9-[(9S)-(2-methyl-1-oxo-propyl)amino]-N-((3S)-1-diazo-5-methyl-2-oxo-3-hexyl)-octahydro-6,10-dioxo-6H-(1S)-pyridazino[1,2-a][1,2]diazepine-1-carboxamide]  5.00
9. C[C@H](NC(=O)[C@@H]1CCCN2C(=O)CC[C@H](NC(=O)Nc3ccc(Oc4ccccc4)cc3)C(=O)N12)C(=O)C=[N+]=[N-] [Example 171, 9-[(9S)-[[(4-phenoxyphenyl)amino]carbonyl]amino]-N-((2S)-4-diazo-3-oxo-2-butyl)-octahydro-6,10-dioxo-6H-(1S)-pyridazino[1,2-a][1,2]diazepine-1-carboxamide]  5.10
10. CC(C)C[C@H](NC(=O)[C@@H]1CCCN2C(=O)CC[C@H](NC(=O)c3ccco3)C(=O)N12)C(=O)C=[N+]=[N-] [Example 341, 9-[(9S)-[(2-furanyl)carbonyl]amino]-N-((3S)-1-diazo-5-methyl-2-oxo-3-hexyl)-octahydro-6,10-dioxo-6H-(1S)-pyridazino[1,2-a][1,2]diazepine-1-carboxamide]  5.10
11. COc1cccc(C(=O)N[C@H]2CCC(=O)N3CCC[C@@H](C(=O)N[C@@H](CC(C)C)C(=O)C=[N+]=[N-])N3C2=O)c1 [Example 340, 9-[(9S)-(3-methoxybenzoyl)amino]-N-((3S)-1-diazo-5-methyl-2-oxo-3-hexyl)-octahydro-6,10-dioxo-6H-(1S)-pyridazino[1,2-a][1,2]diazepine-1-carboxamide]  5.15
12. C=CCOC(=O)CC[C@H](NC(=O)[C@@H]1CCCN2C(=O)CC[C@H](NS(=O)(=O)c3ccc(C(F)(F)F)cc3)C(=O)N12)C(=O)C=[N+]=[N-] [Example 46, (2-propenyl)(4S)6-diazo-4-[[[(1S,9S)-9-[[[4-(trifluoromethyl)phenyl]sulphonyl]amino]-octahydro-6,10-dioxo-6H-pyridazino[1,2-a][1,2]diazepine-1-yl]carbonyl]amino]-5-oxo-hexanoate]  5.22
13. CC(C)C[C@H](NC(=O)[C@@H]1CCCN2C(=O)CC[C@H](NS(C)(=O)=O)C(=O)N12)C(=O)C=[N+]=[N-] [Example 346, 9-[(9S)-(methylsulphonyl)amino]-N-((3S)-1-diazo-5-methyl-2-oxo-3-hexyl)-octahydro-6,10-dioxo-6H-(1S)-pyridazino[1,2-a][1,2]diazepine-1-carboxamide]  5.22
14. C=CCOC(=O)CC[C@H](NC(=O)[C@@H]1CCCN2C(=O)CC[C@H](NC(=O)C(C)C)C(=O)N12)C(=O)C=[N+]=[N-] [Example 38, (2-propenyl)(4S)6-diazo-4-[[[(1S,9S)-9-[(2-methyl-1-oxo-propyl)amino]-octahydro-6,10-dioxo-6H-pyridazino[1,2-a][1,2]diazepine-1-yl]carbonyl]amino]-5-oxo-hexanoate]  5.30
15. C=CCOC(=O)CC[C@H](NC(=O)[C@@H]1CCCN2C(=O)CC[C@H](NS(=O)(=O)c3ccc4ccccc4c3)C(=O)N12)C(=O)C=[N+]=[N-] [Example 47, (2-propenyl)(4S)6-diazo-4-[[[(1S,9S)-9-[[(2-naphthalenyl)sulphonyl]amino]-octahydro-6,10-dioxo-6H-pyridazino[1,2-a][1,2]diazepine-1-yl]carbonyl]amino]-5-oxo-hexanoate]  5.30
16. CC(C)C[C@H](NC(=O)[C@@H]1CCCN2C(=O)CC[C@H](NC(=O)Nc3ccc(Oc4ccccc4)cc3)C(=O)N12)C(=O)C=[N+]=[N-] [Example 344, 9-[(9S)-[[(4-phenoxyphenyl)amino]carbonyl]amino]-N-((3S)-1-diazo-5-methyl-2-oxo-3-hexyl)-octahydro-6,10-dioxo-6H-(1S)-pyridazino[1,2-a][1,2]diazepine-1-carboxamide]  5.30
17. CC(C)C[C@H](NC(=O)[C@@H]1CCCN2C(=O)CC[C@H](NC(=O)NCCc3cccs3)C(=O)N12)C(=O)C=[N+]=[N-] [Example 345, 9-[(9S)-[[[2-(thien-2-yl)-ethyl]amino]carbonyl]amino]-N-((3S)-1-diazo-5-methyl-2-oxo-3-hexyl)-octahydro-6,10-dioxo-6H-(1S)-pyridazino[1,2-a][1,2]diazepine-1-carboxamide]  5.30
18. C=CCOC(=O)CC[C@H](NC(=O)[C@@H]1CCCN2C(=O)CC[C@H](NC(=O)NC3CCCCC3)C(=O)N12)C(=O)C=[N+]=[N-] [Example 42, (2-propenyl)(4S)6-diazo-4-[[[(1S,9S)-9-[[(cyclohexylamino)carbonyl]amino]-octahydro-6,10-dioxo-6H-pyridazino[1,2-a][1,2]diazepine-1-yl]carbonyl]amino]-5-oxo-hexanoate]  5.40
19. C=CCOC(=O)CC[C@H](NC(=O)[C@@H]1CCCN2C(=O)CC[C@H](NC(=O)c3cccc(OC)c3)C(=O)N12)C(=O)C=[N+]=[N-] [Example 39, (2-propenyl)(4S)6-diazo-4-[[[(1S,9S)-9-[(3-methoxybenzoyl)amino]-octahydro-6,10-dioxo-6H-pyridazino[1,2-a][1,2]diazepine-1-yl]carbonyl]amino]-5-oxo-hexanoate]  5.52
20. C=CCOC(=O)CC[C@H](NC(=O)[C@@H]1CCCN2C(=O)CC[C@H](NC(=O)c3ccco3)C(=O)N12)C(=O)C=[N+]=[N-] [Example 40, (2-propenyl)(4S)6-diazo-4-[[[(1S,9S)-9-[[(2-furanyl)carbonyl]amino]-octahydro-6,10-dioxo-6H-pyridazino[1,2-a][1,2]diazepine-1-yl]carbonyl]amino]-5-oxo-hexanoate]  5.74
21. C=CCOC(=O)CC[C@H](NC(=O)[C@@H]1CCCN2C(=O)CC[C@H](NS(C)(=O)=O)C(=O)N12)C(=O)C=[N+]=[N-] [Example 45, (2-propenyl)(4S)6-diazo-4-[[[(1S,9S)-9-[(methylsulphonyl)amino]-octahydro-6,10-dioxo-6H-pyridazino[1,2-a][l,2]diazepine-1-yl]carbonyl]amino]-5-oxo-hexanoate]  6.05
